Measurements as given in ChEMBL document CHEMBL4483862, “Open-source discovery of chemical leads for next-generation chemoprotective antimalarials” (2018).

Tested on: Plasmodium berghei
Experiment: Luciferase/luciferin-expressing antifolate-resistant parasites were used to infect a culture of HepG2 cells that were pre-incubated with compounds. Infected hepatocytes emit light due to the luciferase reaction. Assay results are presented as the percent inhibition of light emission compared to control. […]
Format: functional
Details: sporozoite; for IC90: read-out: LUCIFERASE INFECTION ASSAY - IC90
[1] = read-out: LUCIFERASE INFECTION ASSAY - IC50

Row | SMILES | IC90 [µM] | IC50 [1] [µM] | further results
1 | COc1ccc(OCC(N)=NC(=S)Nc2cccc(C(F)(F)F)c2)cc1 | > 8.61 |  | IC50 (PBLUC_HILL_SLOPE 17.2, PBLUC_R_SQUARED 0.0649, read-out: LUCIFERASE INFECTION ASSAY - IC50): > 8.61 µM
2 | Cc1ccccc1CN1CCN2C=C(C(=O)Nc3ccc(Oc4ccccc4)cc3)OC2=NC1=O | > 10 | > 10 | 
3 | Cn1cnc([N+](=O)[O-])c1Sc1cccs1 | > 13.7 |  | IC50 (FFLUC_HILL_SLOPE 1.45, FFLUC_R_SQUARED 0.647, PBLUC_HILL_SLOPE 13.1, PBLUC_R_SQUARED 0.224, read-out: LUCIFERASE INFECTION ASSAY - IC50): > 13.7 µM
4 | O=C(c1cc(C(=O)N2CCCC2)c2nc3scc(-c4ccccc4)c3c(=O)n2c1)c1ccccc1O | > 10 | > 10 | 
5 | COc1cc(C(=O)Nc2ccc(-c3csc(N4CCOCC4)n3)cc2)cc(Cl)c1OC | > 10 |  | IC50 (HEPG2TOX_HILL_SLOPE 2.64, HEPG2TOX_R_SQUARED 0.944, PBLUC_HILL_SLOPE 1.81, PBLUC_R_SQUARED 0.542, read-out: LUCIFERASE INFECTION ASSAY - IC50): 3.98 µM
6 | CCCOc1ccc(/C=N/NC(=S)Nc2ccccc2[N+](=O)[O-])c(O)c1 | 1 |  | IC50 (HEPG2TOX_HILL_SLOPE 3.34, HEPG2TOX_R_SQUARED 0.913, PBLUC_HILL_SLOPE 0.962, PBLUC_R_SQUARED 0.919, read-out: LUCIFERASE INFECTION ASSAY - IC50): 0.102 µM
7 | CSc1nc(C)nc(C)c1C(=O)Nc1nc(-c2ccc3c(c2)CCCC3)cs1 | > 10 |  | IC50 (FFLUC_HILL_SLOPE 9.1, FFLUC_R_SQUARED 0.159, read-out: LUCIFERASE INFECTION ASSAY - IC50): > 10 µM
8 | O=C1CC(c2c(F)cccc2Cl)CC2=Nc3ccccc3NC(c3ccc(Cl)cc3)C12 (stereo unspecified) | > 7.28 |  | IC50 (HEPG2TOX_HILL_SLOPE 0.118, HEPG2TOX_R_SQUARED 0.0386, read-out: LUCIFERASE INFECTION ASSAY - IC50): > 7.28 µM
9 | CCN(CC)c1ccc(NC(=O)c2ccc(Br)o2)cc1S(=O)(=O)Nc1ccccc1OC | 4.43 |  | IC50 (HEPG2TOX_HILL_SLOPE 1.78, HEPG2TOX_R_SQUARED 0.619, PBLUC_HILL_SLOPE 2.27, PBLUC_R_SQUARED 0.536, read-out: LUCIFERASE INFECTION ASSAY - IC50): 1.68 µM
10 | O=C(Nc1cccc(Oc2cnccn2)c1)C(c1ccccc1)c1ccccc1 | > 10 |  | IC50 (PBLUC_HILL_SLOPE 11.4, PBLUC_R_SQUARED 0.171, read-out: LUCIFERASE INFECTION ASSAY - IC50): 8.47 µM
11 | COc1cccc(N(C)C(=O)c2nn(Cc3ccccc3)c(=O)c3ccccc23)n1 | > 10 | > 10 | 
12 | CCNC(=O)Cn1c(=O)/c(=C\c2ccccc2Cl)s/c1=C\C(=O)c1ccccc1C | > 10 | > 10 | 
13 | Cc1c(C(=O)NC2CC2)sc(=O)n1Cc1ccc(-c2ccccc2)cc1 | 8.88 | 1.9 | 
14 | c1ccc(-c2nnc3ccc(-c4cccs4)cn23)cc1 | > 10 |  | IC50 (HEPG2TOX_HILL_SLOPE 16.6, HEPG2TOX_R_SQUARED 0.17, read-out: LUCIFERASE INFECTION ASSAY - IC50): > 10 µM
15 | C=C(C)c1ccccc(=O)c1O | > 20.3 | > 20.3 | 
16 | Cc1ccc(Cn2ccs/c2=N/C(=O)COC(=O)CCN2C(=O)C3CC=CCC3C2=O)cc1 (stereo unspecified) | > 10 | > 10 | 
17 | CC(NC(=O)C12CC3CC(CC(C3)C1)C2)C(=O)N/N=C/C1=C(N2CCOCC2)C(=C\c2ccccc2)/CC1 (stereo unspecified) | > 10 |  | IC50 (FFLUC_HILL_SLOPE 17.7, FFLUC_R_SQUARED 0.505, PBLUC_HILL_SLOPE 17.3, PBLUC_R_SQUARED 0.294, read-out: LUCIFERASE INFECTION ASSAY - IC50): 9.09 µM
18 | Cc1nn(-c2ccccc2)nc1C(=O)NNC(=S)Nc1ccc(Cl)cc1 | > 8.53 | > 8.53 | 
19 | c1ccc2c(NCc3ccc(N4CCCC4)nc3)ncnc2c1 | 3.16 |  | IC50 (HEPG2TOX_HILL_SLOPE 0.683, HEPG2TOX_R_SQUARED 0.958, PBLUC_HILL_SLOPE 1.41, PBLUC_R_SQUARED 0.701, read-out: LUCIFERASE INFECTION ASSAY - IC50): 0.668 µM
20 | CCN1CCN(c2nc(-c3ccccc3)nc3sc(-c4ccccc4)cc23)CC1 | > 10 |  | IC50 (HEPG2TOX_HILL_SLOPE 6.07, HEPG2TOX_R_SQUARED 0.861, PBLUC_HILL_SLOPE 3.24, PBLUC_R_SQUARED 0.199, read-out: LUCIFERASE INFECTION ASSAY - IC50): 6.9 µM
21 | COc1ccc(NC(=O)C(c2ccccc2)N2CCN(C)CC2)cc1Cl (stereo unspecified) | > 10 | > 10 | 
22 | COc1ccc2c(C)cc3nnc(SCCOc4ccccc4F)n3c2c1 | 5.11 |  | IC50 (PBLUC_HILL_SLOPE 752, PBLUC_R_SQUARED 0.219, read-out: LUCIFERASE INFECTION ASSAY - IC50): 5.09 µM
23 | Cc1ccc(-n2c(C)cc(C(=O)Cn3nc(C)c(C)c(C#N)c3=O)c2C)cc1C | > 10 |  | IC50 (HEPG2TOX_HILL_SLOPE 1.5, HEPG2TOX_R_SQUARED 0.806, PBLUC_HILL_SLOPE 3.65, PBLUC_R_SQUARED 0.115, read-out: LUCIFERASE INFECTION ASSAY - IC50): 9.8 µM
